The experiment deals with T1, GST-Plk1 (Homo sapiens, UniProt P53350).
T1 construct: Full-length, active GST-Plk1 was purified from Sf9 insect cells; made in house; host or cells: Sf9 insect cells
In words: Biochemical Characterization Assay: HTRF kinase assay, GST-Plk1 phosphorylation of GST-p53. The conditions noted are these: full-length active GST-Plk1, GST-p53 substrate, ATP, 37° C. for 35 minutes, HTRF signal. Here is the method: Full-length, active GST-Plk1 was purified from Sf9 insect cells, and full-length GST-p53 was purified in E. coli. Anti-phospho p53 antibody was purchased from Cell Signaling Technology. Europium-conjugated anti-rabbit antibody was purchased from PerkinElmer Life and Analytical Sciences. APC-conjugated anti-GST antibody was purchased from Prozyme.
To two microliters of compound (0.6 nM-4 mM) in DMSO or plain DMSO for control wells, 38 microliters of 20 mM HEPES pH 7, 50 mM NaCl, 10 mM MgCl2, 0.5 mM TCEP, 0.1 mM sodium orthovanadate, 0.1 mg/ml BSA, and 0.05% Triton X-100 (Kinase Assay Buffer) were added. Eight microliters of the compound solution were added to a 384-well black microtiter plate, followed by six microliters of GST-p53 (17 ug/ml) and ATP (333 uM) in Kinase Assay Buffer. Six microliters of GST-Plk1 (3 ug/ml) in Kinase Assay Buffer were then added and the solution incubated at 37° C. for 35 minutes. Six microliters of solution containing 43 mM EDTA to stop the reaction and a 1:600 dilution of anti-phospho-p53 antibody in 20 mM HEPES pH 7, 50 mM NaCl, and 0.5 mg/ml BSA (Antibody Binding Buffer) were added and the solution incubated at 37° C. for 30 minutes. Six microliters of solution containing 9 nM europium-conjugated anti-rabbit antibody and 120 nM APC-conjugated anti-GST antibody in Antibody Binding Buffer were then added and the mixture incubated at room temperature for 1.5 hours. The HTRF signal was read on the Envision reader (PerkinElmer Life and Analytical Sciences).

T1 sequence (P53350 whole entry): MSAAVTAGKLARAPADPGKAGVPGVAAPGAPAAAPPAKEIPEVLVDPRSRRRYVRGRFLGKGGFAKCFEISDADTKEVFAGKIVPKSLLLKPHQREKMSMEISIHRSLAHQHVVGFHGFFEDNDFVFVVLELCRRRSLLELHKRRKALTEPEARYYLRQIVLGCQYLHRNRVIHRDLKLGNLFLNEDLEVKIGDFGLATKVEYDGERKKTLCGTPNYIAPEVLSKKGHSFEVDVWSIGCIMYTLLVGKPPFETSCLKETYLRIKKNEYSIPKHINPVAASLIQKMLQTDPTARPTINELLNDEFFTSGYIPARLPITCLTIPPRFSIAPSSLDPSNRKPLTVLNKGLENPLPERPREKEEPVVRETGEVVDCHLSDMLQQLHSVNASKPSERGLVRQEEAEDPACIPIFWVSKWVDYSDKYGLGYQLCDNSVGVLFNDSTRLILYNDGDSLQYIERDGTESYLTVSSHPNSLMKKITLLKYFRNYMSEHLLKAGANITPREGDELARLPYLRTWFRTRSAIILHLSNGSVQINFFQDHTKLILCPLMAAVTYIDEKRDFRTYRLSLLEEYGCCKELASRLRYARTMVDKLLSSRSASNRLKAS

The compound “2-(5-Chloro-6-methylbenzoimidazol-1-yl)-4-phenylthiazole-5-carboxylic acid and 2-(6-chloro-5-methylbenzoimidazol-1-yl)-4-phenylthiazole-5-carboxylic acid [Example 16]” had an IC50 of 1.17 µM.

In turn, `COc1cc2ncn(-c3nc(-c4cc(Cl)cc(Cl)c4)c(C(=O)O)s3)c2cc1OC` [Example 41, 4-(3,5-Dichloro-phenyl)-2-(5,6-dimethoxy-benzoimidazol-1-yl)-thiazole-5-carboxylic acid] showed an IC50 of 0.066 µM. This IC50 lies about 18-fold lower than the previous one. Compound `COc1ccc2c(c1)ncn2-c1nc(-c2ccccc2)c(C(=O)O)s1` [Example 62, 2-(5-Methoxy-benzoimidazol-1-yl)-4-phe-nyl-thiazole-5-car-boxylic acid] came in with an IC50 of 0.261 µM. For the compound `COc1cc2ncn(-c3nc(-c4ccc(C(F)(F)F)c(Cl)c4)c(C(=O)O)s3)c2cc1OC` [Example 45, 4-(3-Chloro-4-trifluoromethyl-phenyl)-2-(5,6-dimethoxy-benzoimidazol-1-yl)-thiazole-5-carboxylic acid], the IC50 worked out at 0.354 µM.

Take `COc1cc2ncn(-c3nc(-c4cccc(Cl)c4)c(C(=O)Nc4cc[nH]c(=O)n4)s3)c2cc1OC` [Example 60, 4-(3-Chloro-phenyl)-2-(5,6-dimethoxy-benzoimidazol-1-yl)-thiazole-5-carboxylic acid (2-oxo-1,2-dihydro-pyrimidin-4-yl)-amide]: the IC50 worked out at 4.43 µM. Under `COc1ccc(-c2nc(-n3cnc4cc(OC)c(OC)cc43)sc2C(=O)O)cc1OC` [Example 18, 2-(5,6-Dimethoxy-benzoimidazol-1-yl)-4-(3,4-dimethoxy-phenyl)-thiazole-5-carboxylic acid] stands 2.39 µM.

For the compound `COc1cc2ncn(-c3nc(-c4cccc(C(F)(F)F)c4)c(C(=O)O)s3)c2cc1OC` [Example 43, 2-(5,6-Dimethoxy-benzoimidazol-1-yl)-4-(3-trifluoromethyl-phenyl)-thiazole-5-carboxylic acid], the IC50 was 0.157 µM. Under `COc1cc2ncn(-c3nc(-c4ccc5c(c4)OCO5)c(C(=O)O)s3)c2cc1OC` [Example 22, 4-Benzo[1,3]dioxol-5-yl-2-(5,6-dimethoxy-benzoimidazol-1-yl)-thiazole-5-carboxylic acid] stands 0.125 µM; under “2-(5-Chloro-6-fluoro-benzoimidazol-1-yl)-4-phenyl-thiazole-5-carboxylic acid and 2-(6-chloro-5-fluoro-benzoimidazol-1-yl)-4-phenyl-thiazole-5-carboxylic acid [Example 35]”, 1.29 µM; under `COc1cc2ncn(-c3nc(-c4ccccc4)c(C(N)=O)s3)c2cc1OC` [Example 6, 2-(5,6-Dimethoxy-benzoimidazol-1-yl)-4-phenyl-thiazole-5-carboxylic acid amide], 1.38 µM. Under `COc1cc2ncn(-c3nc(-c4ccc(F)c(F)c4)c(C(=O)O)s3)c2cc1OC` [Example 47, 4-(3,4-Difluoro-phenyl)-2-(5,6-dimethoxy-benzoimidazol-1-yl)-thiazole-5-carboxylic acid] stands 0.542 µM. Consider `COc1cc2ncn(-c3nc(-c4ccc(C)cc4)c(C(=O)O)s3)c2cc1OC` [Example 26, 2-(5,6-Dimethoxy-benzoimidazol-1-yl)-4-p-tolyl-thiazole-5-carboxylic acid], for which the IC50 was 0.657 µM. The IC50 values of the last two compounds are within 1.5-fold of each other. In turn, `O=C(O)c1sc(-n2cnc3cc(O)c(O)cc32)nc1-c1ccccc1` [Example 39, 2-(5,6-Dihydroxybenzoimidazol-1-yl)-4-phenyl-thiazole-5-carboxylic acid] yielded an IC50 of 2.02 µM. `NC(=O)c1sc(-n2cnc3ccccc32)nc1-c1ccccc1` [Example 3, 2-Benzoimidazol-1-yl-4-phenyl-thiazole-5-carboxylic acid amide]: half-maximal inhibition (IC50) required 7.36 µM. The value for `C=Cc1cccc(-c2nc(-n3cnc4cc(OC)c(OC)cc43)sc2C(=O)O)c1` [Example 40, 2-(5,6-Dimethoxy-benzoimidazol-1-yl)-4-(3-vinyl-phenyl)-thiazole-5-carboxylic acid] was 0.102 µM. `COc1cc2ncn(-c3nc(-c4ccc5c(c4)OCCO5)c(C(=O)O)s3)c2cc1OC` [Example 50, 4-(2,3-Dihydro-benzo[1,4]dioxin-6-yl)-2-(5,6-dimethoxy-benzoimidazol-1-yl)-thiazole-5-carboxylic acid] had an IC50 of 2.34 µM.

Regarding “2-(5-Chlorobenzoimidazol-1-yl)-4-phenylthiazole-5-carboxylic acid and 2-(6-chlorobenzoimidazol-1-yl)-4-phenylthiazole-5-carboxylic acid [Example 14]”, the IC50 came out at 0.72 µM. This IC50 is about 3.2-fold lower than that of the compound before.

As for `COc1cc2ncn(-c3nc(-c4cccc(Cl)c4)c(C(=O)NNC(=O)c4cccc(C)c4)s3)c2cc1OC` [Example 58, 3-Methyl-benzoic acid N′-[4-(3-chloro-phenyl)-2-(5,6-dimethoxy-benzoimidazol-1-yl)-thiazole-5-carbonyl]-hydrazide], the IC50 stood at 0.586 µM. In the case of `C=Cc1ccc(-c2nc(-n3cnc4cc(OC)c(OC)cc43)sc2C(=O)O)cc1` [Example 51, 2-(5,6-Dimethoxy-benzoimidazol-1-yl)-4-(4-vinyl-phenyl)-thiazole-5-carboxylic acid], the IC50 was determined as 2.67 µM.

Turning to `COc1cccc(NC(=O)c2sc(-n3cnc4cc(OC)c(OC)cc43)nc2-c2cccc(Cl)c2)c1` [Example 55, 4-(3-Chloro-phenyl)-2-(5,6-dimethoxy-benzoimidazol-1-yl)-thiazole-5-carboxylic acid (3-methoxy-phenyl)-amide], the IC50 worked out at 0.25 µM. `COc1cc2ncn(-c3nc(-c4cccc(F)c4F)c(C(=O)O)s3)c2cc1OC` [Example 29, 4-(2,3-Difluoro-phenyl)-2-(5,6-dimethoxy-benzoimidazol-1-yl)-thiazole-5-carboxylic acid] displayed an IC50 of 0.538 µM. Compared with the last compound, the IC50 is about 2.2-fold higher. The compound “1-(5-Carboxy-4-phenyl-thiazol-2-yl)-1H-benzoimidazole-4-carboxylic acid and 3-(5-carboxy-4-phenyl-thiazol-2-yl)-3H-benzoimidazole-4-carboxylic acid [Example 8]” came in with an IC50 of 6.42 µM. Consider `Cc1cc2ncn(-c3nc(-c4ccccc4)c(C(=O)O)s3)c2cc1C` [Example 5, 2-(5,6-Dimethylbenzoimidazol-1-yl)-4-phenylthiazole-5-carboxylic acid], for which the IC50 stood at 2.49 µM. For the compound `COc1cc2ncn(-c3nc(-c4cccc(CO)c4)c(C(=O)O)s3)c2cc1OC` [Example 49, 2-(5,6-Dimethoxy-benzoimidazol-1-yl)-4-(3-hydroxymethyl-phenyl)-thiazole-5-carboxylic acid], the IC50 is 1.08 µM. This IC50 lies about 2.3-fold lower than the previous one.

Regarding `O=C(O)c1sc(-n2cnc3cccc(O)c32)nc1-c1ccccc1` [Example 61, 2-(7-Hydroxy-benzoimidazol-1-yl)-4-phenyl-thiazole-5-carboxylic acid], inhibition was half-maximal at 4.68 µM (IC50). Compared with the last compound, the IC50 is about 4.3-fold higher. Under “2-(5-Methylbenzoimidazol-1-yl)-4-phenylthiazole-5-carboxylic acid and 2-(6-Methylbenzoimidazol-1-yl)-4-phenylthiazole-5-carboxylic acid [Example 4]” stands 1.55 µM; under `COc1cc2ncn(-c3nc(-c4ccccc4Cl)c(C(=O)O)s3)c2cc1OC` [Example 21, 4-(2-Chloro-phenyl)-2-(5,6-dimethoxy-benzoimidazol-1-yl)-thiazole-5-carboxylic acid], 3.6 µM; under `COc1cc2ncn(-c3nc(-c4ccccc4O)c(C(=O)O)s3)c2cc1OC` [Example 30, 2-(5,6-Dimethoxy-benzoimidazol-1-yl)-4-(2-hydroxy-phenyl)-thiazole-5-carboxylic acid], 0.275 µM. `COc1cc2ncn(-c3nc(-c4ccccc4)c(C(=O)N(C)C)s3)c2cc1OC` [Example 10, 2-(5,6-Dimethoxy-benzoimidazol-1-yl)-4-phenyl-thiazole-5-carboxylic acid dimethylamide] came in with an IC50 of 1.39 µM.

As for `COc1cc2ncn(-c3nc(-c4ccc(Cl)c(Cl)c4)c(C(=O)O)s3)c2cc1OC` [Example 23, 4-(3,4-Dichloro-phenyl)-2-(5,6-dimethoxy-benzoimidazol-1-yl)-thiazole-5-carboxylic acid], the IC50 was determined as 0.216 µM. Compound `COc1cc2ncn(-c3nc(-c4cccc5ccccc45)c(C(=O)O)s3)c2cc1OC` [Example 32, 2-(5,6-Dimethoxy-benzoimidazol-1-yl)-4-naphthalen-1-yl-thiazole-5-carboxylic acid] showed an IC50 of 3.18 µM. Compound `COc1cc2ncn(-c3nc(-c4ccccc4)c(C(=O)Nc4ccccc4)s3)c2cc1OC` [Example 38, 2-(5,6-Dimethoxy-benzoimidazol-1-yl)-4-phenyl-thiazole-5-carboxylic acid phenylamide] showed an IC50 of 0.606 µM. In turn, `COc1cc2ncn(-c3nc(-c4ccccc4)c(C(=O)O)s3)c2cc1OC` [Example 1, 2-(5,6-Dimethoxybenzoimidazol-1-yl)-4-phenylthiazole-5-carboxylic acid] displayed an IC50 of 0.107 µM. Against the preceding compound, the IC50 is about 5.7-fold lower.

(Values after patent publication US7504513B2, “Thiazolyl-benzimidazoles” (Hoffman-La Roche Inc., priority 2006, dated 2009).)
